According to patent US20070259903A1 (priority 2006, published 2007):
≈ marks a conversion by molar mass, not a printed value. Read-outs that look alike come from different tables or passages of the source.

Columns and labels:
Flu A (H5N1) = type: cell-based, influenza A virus; conditions: virus treated one hour
Flu B Shanghai/361/02 = type: cell-based, influenza B virus; conditions: MDCK cells, continuous exposure
Procedure: (§1) The antiviral activity of barbituric acid analogs was also evaluated under conditions where the indicator cells to which virus had been previously added and then continuously exposed to different concentrations of C1 for the duration of the experiments. Eight different doses of C1 ranging from 100 μg/ml to half-log dilutions down to 0.032 μg/ml were added to the indicator cells after adding the indicated virus. This virus-cell combination was continuously exposed to C1 until untreated control wells developed a cytopathic effect (CPE) usually after 4 to 6 days of incubation at 37° C. At the end of incubation period at 37° C., the resulting cytopathic effect (CPE) in control and test wells was assessed by visual and a Neutral Red Dye assay.
(§2) Results of CPE versus concentration of C1 were plotted on a semi-log paper and the dose of C1 that caused a 50% inhibition of virus mediated CPE (EC50) was calculated.

SARS (urbani) = type: cell-based, Severe Acute Respiratory Syndrome (SARS) virus
RSV A A2 = type: cell-based, Respiratory Synsycitial virus; conditions: MA-104 cells, continuous exposure
Procedure: as §1, §2

PIV 14702 = type: cell-based, Parainfluenza virus; conditions: MA-104 cells, continuous exposure
Procedure: as §1, §2

[1] = tested on: Influenza A/New Caledonia/20/99 (H1N1); experiment: ETOH vs DMSO comparison: compound + virus 1 h at room temperature, then left on indicator cells 3 days, neutral red; type: cell-based, influenza A virus; conditions: exposed to c1 + virus for 3 days
Rhinovirus HGP = type: cell-based; conditions: HeLa Ohio-1 cells, continuous exposure
Procedure: as §1, §2

Measles Chicago = type: cell-based; conditions: CV-1 cells, continuous exposure
Procedure: as §1, §2

Flu B Shanghai virus = experiment: Virucidal activity: virus pre-incubated with compound 1 h, applied to MDCK cells 1 h, removed, CPE after 6 days; type: cell-based, influenza B virus
Procedure: For each test, a stock solution of the lead Compound C1 was made by first dissolving it in a small amount (50-100 microliters) of absolute ethanol (ETOH) followed by addition of growth nutrient medium to a final volume of 1 ml to bring the stock concentration of 20 mg/ml. It was tested at a concentration of 100 μg/ml, with half-log dilutions down to 0.032 μg/ml.
The compound C1 and the virus being tested were incubated together at 8 different concentrations for 1 hour at 37° C. Then virus/compound mixture applied to established cultured MDCK (Madin-Darby canine kidney) cells for 1 hour at 37° C. After 1 hour, the Virus/compound were removed, and replaced with new virus/compound free medium, and the indicator cells were further incubated for 6 days. Virus that survived the one hour pre-incubation and one hour exposure to indicator cells caused cytopathic effect (CPE) development. Results were evaluated by microscopic inspection (visual) as well as a spectrophotometic Neutral Red Dye Assay. The values shown represent the concentration (μg/ml) of C1 that caused a 50% virucidal effect (EC50). […]
The EC50 values were calculated by extrapolation from a plot of concentration versus virucidal activity data on semi-log paper. This allowed us to quantify complete virus killing of a small amount of virus (about 50-100 cell culture infectious doses).

Flu A (H3N2) = experiment: Virucidal activity: virus pre-incubated with compound, applied to MDCK cells 1 h, removed, CPE after 6 days; type: cell-based, influenza A virus
[2] = tested on: Influenza A/California/7/04 (H3N2); experiment: ETOH vs DMSO comparison: compound + virus 1 h at room temperature, on indicator cells 1 hour then removed, neutral red; type: cell-based, influenza A virus; conditions: exposed to c1 + virus for 1 hour
[3] = tested on: Influenza A/New Caledonia/20/99 (H1N1); experiment: as above; type: cell-based, influenza A virus; conditions: exposed to c1 + virus for 1 hour
[4] = tested on: Flu A (H5N1) Vietnam/1203/2004 H; type: cell-based, influenza A virus; conditions: MDCK cells, continuous exposure
[5] = tested on: Influenza A/California/7/04 (H3N2); experiment: ETOH vs DMSO comparison: compound + virus 1 h at room temperature, then left on indicator cells 3 days, neutral red; type: cell-based, influenza A virus; conditions: exposed to c1 + virus for 3 days

CCCCN1C(=O)CC(=O)N(CCCC)C1=S [Compound C1, 4,6(1H, 5H)-Pyrimidinedione, 1,3-dibutyldihydro-2-thioxo]
dose that caused a 50% inactivation (EC50) (Flu A (H5N1); Neutral red assay, after 6 days): 37 µg/mL | dose that caused a 50% inactivation (EC50) (Flu A (H5N1); visual method, % CPE after 6 days): 6.0 µg/mL | EC50 (Flu B Shanghai/361/02; Neutral Red): 3 µg/mL | EC50 (Flu B Shanghai/361/02; Visual): 3 µg/mL | dose causing 50% inactivation of the virus (SARS (urbani); Neutral Red dye assay): 53 µg/mL | dose causing 50% inactivation of the virus (SARS (urbani); visual method): 12 µg/mL | EC50 (RSV A A2; Neutral Red): 30 µg/mL | EC50 (RSV A A2; Visual): 30 µg/mL | EC50 (PIV 14702; Neutral Red): 30 µg/mL | EC50 (PIV 14702; Visual): 30 µg/mL | Increase virucidal activity of C1 in DMSO ([1]; DMSO versus ETOH): 200% | EC50 of C1 in DMSO ([1]; dissolved in DMSO, neutral red): >2.6 µg/mL | EC50 of C1 in ETOH ([1]; dissolved in ETOH, neutral red): >4.5 µg/mL | EC50 (Rhinovirus HGP; Neutral Red): 30 µg/mL | EC50 (Rhinovirus HGP; Visual): 30 µg/mL | EC50 (Measles Chicago; Neutral Red): 40 µg/mL | EC50 (Measles Chicago; Visual): 30 µg/mL | dose causing 50% inactivation of the virus (Flu B Shanghai virus; Neutral red dye assay): 37 µg/mL | dose causing 50% inactivation of the virus (Flu B Shanghai virus; visual method): 42 µg/mL | inactivation of the virus by treatment (Flu A (H3N2); FIG. 2): virtually complete inactivation | dose that caused a 50% inactivation (EC50) (Flu A (H3N2); visual method, virus treated for 4 hours (so in the source), MDCK indicator cells): 5.5 µg/mL | Increase virucidal activity of C1 in DMSO ([2]; DMSO versus ETOH): 220% | EC50 of C1 in DMSO ([2]; dissolved in DMSO, neutral red): 20.0 µg/mL | EC50 of C1 in ETOH ([2]; dissolved in ETOH, neutral red): 42.0 µg/mL | Increase virucidal activity of C1 in DMSO ([3]; DMSO versus ETOH): 140% | EC50 of C1 in DMSO ([3]; dissolved in DMSO, neutral red): 30.0 µg/mL | EC50 of C1 in ETOH ([3]; dissolved in ETOH, neutral red): 42.0 µg/mL | EC50 ([4]; Neutral Red): 3 µg/mL (≈ 11.7 µM) | EC50 ([4]; Visual): 3 µg/mL (≈ 11.7 µM) | Increase virucidal activity of C1 in DMSO ([5]; DMSO versus ETOH): 0% | EC50 of C1 in DMSO ([5]; dissolved in DMSO, neutral red): >1.9 µg/mL | EC50 of C1 in ETOH ([5]; dissolved in ETOH, neutral red): >1.8 µg/mL
